Results as given in patent publication US20200055848A1, “FURANONE DERIVATES AND METHODS OF USE THEREOF” (CARNA BIOSCIENCES, INC., priority 2016, published 2020).
pIC50: −log10 of the molar value.

Assays:
phospho-H2AX (γ-H2AX) = assay: Western blotting of phospho-H2AX in Colo-205 cells; assay type: cell-based, human; details: 48 h
Experimental: FIGS. 3A and 3B illustrate the effects of Cdc7 inhibition by compound 13 in Colo-205 cells. a) Western blot analysis of extracts prepared from Colo-205 cells at 48 h after treatment with DMSO control (0 μM) or compound 13 at indicated concentrations. b) […] analysis of Colo-205 cells treated for 48 h with DMSO control (0 μM) and the indicated concentration of compound 13. DNA content was measured by FACS after propidium iodide staining.
Human colon adenocarcinoma cell line Colo-205 was obtained from American Type Culture Collection (ATCC, Manassas Va.). Cells were grown in RPMI1640 supplemented with 10% FBS and 1% penicillin/streptomycin at 37° C., 5% CO2 and 95% humidity. Antibodies against Phospho-Histone H2A.X (Ser139) (no. 2577), Cleaved PARP (Asp214) (no. 9541) and MCM2 (no. 3619) were obtained from Cell signaling Technology. […]
Cells were seeded in T75 flasks (cell density, 2.25×10^6 cells/13.5 mL) and then incubated at 37° C. overnight. […] After washing with cold D-PBS, cells were scraped and lysed using a lysis buffer [RIPA Buffer (×1) containing 1% Phosphatase inhibitor Cocktail 3, 1% Phosphatase inhibitor Cocktail, and 1 mM phenylmethylsulfonyl fluoride], and the obtained samples were analyzed by western blotting. […] Each band was detected by chemiluminescence using a CCD camera (ImageQuant LAS 500, GE healthcare Ltd.).

p70S6K = p70S6K (Homo sapiens, UniProt P23443); assay: Kinase selectivity IC50, p70S6K; assay type: biochemical
Experimental: (§1) To investigate the representative kinase selectivity of these compounds at physiological ATP levels, compound 13 was screened over a panel of 121 kinases in the presence of 1 mM ATP with preincubation method. […] IC50 values of hit kinases were determined to confirm the selectivity of compound 13.

HEL299 = assay: Anti-proliferation activity in HEL299; assay type: cell-based; details: HEL 299; HEL299, derived from a human embryo lung tissue
GSK3α = GSK3α (Homo sapiens, UniProt P49840); assay: Kinase selectivity IC50, GSK3α; assay type: biochemical
Experimental: as §1

CLK2 = CLK2 (Homo sapiens, UniProt P49760); assay: Kinase selectivity IC50, CLK2; assay type: biochemical
Experimental: as §1

[1] = In vitro metabolic stability, human liver microsomes; assay type: in vitro ADME
Experimental: (§2) NADPH regeneration system (13 mM NADP, 33 mM Glucose-6-phospate, 33 mM MgCl2, and 4 U/mL of Glucose-6-phosphate dehydrogenase) and liver microsomes (1 mg/mL of HLM (BD Gentest, lot 18888) or MLM (BD Gentest, lot 31197)) in 0.1 M phosphate buffer (pH 7.4) were pre-incubated separately at 37° C. for 20 min before mixing with 1:4 ratio. 50 μL of the mixed solution was added to 50 μL of the test compound (2 μM) to initiate the reaction at 37° C. (final conc. 1 μM test compound, 0.4 mg/mL liver microsomes, and 1.3 mM NADPH). After 30 min, the reactions were stopped by adding 300 μL of cold acetonitrile. For 0 min samples, ice-cold acetonitrile (with system suitability standard) was treated before mixing the test compound and microsomes. The sample were vortexed well and then centrifuged at 3500 rpm at 15° C. for 20 min. 110 μL of supernatant was mixed with 110 μL of water and quantitated by LC-MS/MS workstation (Shimazu Corp.).

panel of 121 kinases = assay: Kinase selectivity screen over a panel of 121 kinases; assay type: biochemical; details: 1 mM ATP with preincubation
Experimental: as §1

PIM1 = PIM1 (Homo sapiens, UniProt P11309); assay: Kinase selectivity IC50, PIM1; assay type: biochemical
Experimental: as §1

[2] = Half-life after intravenous administration in mice; details: mouse, in vivo
Cdc7 = Cdc7 (Homo sapiens, UniProt O00311); assay: Rapid dilution assay (dissociation rate from Cdc7); assay type: biochemical
From the text: FIG. 2 is a graph of the results obtained from the rapid dilution assay for Cdc7 inhibitors. Recovery of enzymatic activity was monitored by formation of the phosphorylated product. DMSO control (closed circle), compound 1 (open triangle), compound 13 (open square).
To better understand the observed time dependent inhibition of these compounds, compound 13 was subjected to the rapid dilution assay to study dissociation rate, and compared with compound 1. The inhibitor-enzyme mixture was rapidly diluted into the assay buffer containing the substrate and a high concentration of ATP, and then the phosphorylated product formation was monitored over 500 min of time course.

[3] = In vitro metabolic stability, mouse liver microsomes; assay type: in vitro ADME
Experimental: as §2

[4] = 1 mM ATP with preincubation, mean of duplicated assays

Chain of Cdc7 (O00311 whole entry): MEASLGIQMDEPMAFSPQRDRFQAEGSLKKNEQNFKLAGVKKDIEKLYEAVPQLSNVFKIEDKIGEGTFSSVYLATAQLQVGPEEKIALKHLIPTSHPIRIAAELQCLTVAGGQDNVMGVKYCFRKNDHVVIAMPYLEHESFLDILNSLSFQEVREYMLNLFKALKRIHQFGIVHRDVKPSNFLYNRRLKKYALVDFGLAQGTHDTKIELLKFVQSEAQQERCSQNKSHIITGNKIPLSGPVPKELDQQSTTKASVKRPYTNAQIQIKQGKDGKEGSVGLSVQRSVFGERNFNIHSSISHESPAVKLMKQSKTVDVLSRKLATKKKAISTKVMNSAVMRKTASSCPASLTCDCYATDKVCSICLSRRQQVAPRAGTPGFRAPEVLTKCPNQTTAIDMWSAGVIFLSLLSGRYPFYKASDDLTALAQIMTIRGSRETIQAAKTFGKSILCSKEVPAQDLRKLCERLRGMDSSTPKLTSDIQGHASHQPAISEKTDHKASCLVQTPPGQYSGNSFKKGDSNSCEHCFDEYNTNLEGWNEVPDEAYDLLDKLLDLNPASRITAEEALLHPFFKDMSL
Chain of Cdc7 (Q9UBU7 whole entry partner): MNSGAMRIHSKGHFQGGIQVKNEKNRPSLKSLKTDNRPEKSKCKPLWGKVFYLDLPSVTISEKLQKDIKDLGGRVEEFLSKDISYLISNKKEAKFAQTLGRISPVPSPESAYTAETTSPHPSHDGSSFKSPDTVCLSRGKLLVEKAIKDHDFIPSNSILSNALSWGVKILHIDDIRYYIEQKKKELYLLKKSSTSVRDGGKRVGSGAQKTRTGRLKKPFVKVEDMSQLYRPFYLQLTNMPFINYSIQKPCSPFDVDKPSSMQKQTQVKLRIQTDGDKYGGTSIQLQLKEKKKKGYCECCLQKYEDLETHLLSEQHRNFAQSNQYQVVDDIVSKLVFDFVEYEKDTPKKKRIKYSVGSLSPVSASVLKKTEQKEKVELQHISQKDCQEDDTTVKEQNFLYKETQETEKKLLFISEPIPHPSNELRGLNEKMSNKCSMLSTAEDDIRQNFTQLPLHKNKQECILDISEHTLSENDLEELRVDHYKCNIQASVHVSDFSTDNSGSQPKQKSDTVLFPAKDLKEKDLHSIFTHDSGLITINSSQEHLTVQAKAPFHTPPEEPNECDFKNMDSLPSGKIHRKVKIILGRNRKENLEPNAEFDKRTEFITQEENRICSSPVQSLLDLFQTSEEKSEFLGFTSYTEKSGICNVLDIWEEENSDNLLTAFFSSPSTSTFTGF
Chain of GSK3α (P49840 whole entry): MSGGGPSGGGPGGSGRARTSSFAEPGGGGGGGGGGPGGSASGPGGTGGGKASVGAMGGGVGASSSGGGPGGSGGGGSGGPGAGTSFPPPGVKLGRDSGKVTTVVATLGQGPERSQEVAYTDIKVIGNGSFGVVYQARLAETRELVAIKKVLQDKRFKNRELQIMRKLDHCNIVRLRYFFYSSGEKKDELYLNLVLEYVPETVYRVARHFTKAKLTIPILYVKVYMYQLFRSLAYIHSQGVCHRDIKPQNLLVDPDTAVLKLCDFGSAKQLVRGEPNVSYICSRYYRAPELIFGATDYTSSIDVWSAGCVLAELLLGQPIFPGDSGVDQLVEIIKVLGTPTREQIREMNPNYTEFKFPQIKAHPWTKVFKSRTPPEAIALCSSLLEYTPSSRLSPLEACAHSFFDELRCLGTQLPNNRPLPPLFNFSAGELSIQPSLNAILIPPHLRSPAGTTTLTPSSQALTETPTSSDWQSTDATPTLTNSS
Chain of PIM1 (P11309 whole entry): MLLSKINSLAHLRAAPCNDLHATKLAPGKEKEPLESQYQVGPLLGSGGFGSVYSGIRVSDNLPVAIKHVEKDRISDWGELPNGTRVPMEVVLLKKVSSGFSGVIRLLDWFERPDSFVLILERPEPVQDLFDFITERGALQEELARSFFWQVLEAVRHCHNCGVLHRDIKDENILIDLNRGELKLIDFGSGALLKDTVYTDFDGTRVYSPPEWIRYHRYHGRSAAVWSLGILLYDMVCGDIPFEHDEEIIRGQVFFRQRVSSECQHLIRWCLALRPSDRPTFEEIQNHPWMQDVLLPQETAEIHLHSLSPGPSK
Chain of p70S6K (P23443 whole entry): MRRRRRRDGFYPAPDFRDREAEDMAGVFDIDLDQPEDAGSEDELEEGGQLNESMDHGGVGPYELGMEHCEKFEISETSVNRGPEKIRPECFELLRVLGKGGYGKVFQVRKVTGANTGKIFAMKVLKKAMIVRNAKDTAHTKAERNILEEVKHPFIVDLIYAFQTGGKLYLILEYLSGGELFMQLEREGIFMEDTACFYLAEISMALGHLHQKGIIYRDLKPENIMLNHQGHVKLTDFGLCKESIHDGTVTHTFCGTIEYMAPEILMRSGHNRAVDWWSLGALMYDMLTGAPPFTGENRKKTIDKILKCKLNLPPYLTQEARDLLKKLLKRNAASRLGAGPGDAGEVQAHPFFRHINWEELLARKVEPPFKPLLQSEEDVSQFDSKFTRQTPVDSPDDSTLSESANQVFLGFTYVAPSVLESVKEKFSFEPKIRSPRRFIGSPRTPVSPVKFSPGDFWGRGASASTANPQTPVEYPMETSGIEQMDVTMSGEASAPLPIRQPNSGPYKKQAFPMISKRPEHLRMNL
Chain of CLK2 (P49760 whole entry): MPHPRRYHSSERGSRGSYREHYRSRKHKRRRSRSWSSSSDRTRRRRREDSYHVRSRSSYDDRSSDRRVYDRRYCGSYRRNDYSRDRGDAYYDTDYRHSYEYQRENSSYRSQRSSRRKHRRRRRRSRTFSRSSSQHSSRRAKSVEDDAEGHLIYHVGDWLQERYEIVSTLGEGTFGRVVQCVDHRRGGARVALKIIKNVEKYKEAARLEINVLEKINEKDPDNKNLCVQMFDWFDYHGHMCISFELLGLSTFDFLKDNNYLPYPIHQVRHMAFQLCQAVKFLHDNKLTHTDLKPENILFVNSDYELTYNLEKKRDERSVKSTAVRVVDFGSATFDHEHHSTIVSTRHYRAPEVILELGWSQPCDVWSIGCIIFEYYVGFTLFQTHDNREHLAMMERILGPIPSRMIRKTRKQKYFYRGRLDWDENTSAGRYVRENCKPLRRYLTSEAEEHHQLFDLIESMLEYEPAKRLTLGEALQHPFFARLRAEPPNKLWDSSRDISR

IC50 (p70S6K; [4]): 399 nM | Fold selectivity, p70S6K (p70S6K; IC50 versus Cdc7): 665 fold | IC50 (GSK3α; [4]): 37 nM | Fold selectivity, GSK3α (GSK3α; IC50 versus Cdc7): 61 fold | IC50 (CLK2; [4]): 5.3 nM | Fold selectivity, CLK2 (CLK2; IC50 versus Cdc7): 8.8 fold | HLM % (remaining % of parent compound) ([1]; 30 min treatment of human liver microsomes): 67% | metabolic stability in human liver microsome (in words) ([1]; human): improved metabolic stabilities | selectivity in favor of Cdc7 over CLKs (panel of 121 kinases): 8 fold | share of the kinase panel inhibited (panel of 121 kinases; >50% inhibition at 0.1 μM, 121 kinases): 7% | IC50 (PIM1; [4]): 77 nM | Fold selectivity, PIM1 (PIM1; IC50 versus Cdc7): 129 fold | half-life [2]: 22.8 min | phosphorylated product formation after rapid dilution (Cdc7; monitored over 500 min): much reduced rate | koff (Cdc7; rapid dilution, high concentration of ATP, read-out: off-rate from Cdc7 (koff) (converted)): 5.83e-05 s⁻¹ | residence time (Cdc7; rapid dilution, high concentration of ATP, read-out: t1/2 of dissociation from Cdc7): 197 min | MLM % (remaining % of parent compound) ([3]; 30 min treatment of mouse liver microsomes): 58% | metabolic stability in mice (in words) ([3]; mouse): improved metabolic stabilities
Structure (SMILES): CCOC(=O)C1=C(Nc2ccccc2Cl)OC(=Cc2c[nH]c3ncccc23)C1=O [Compound 13, Ethyl 5-((1H-pyrrolo[2,3-b]pyridin-3-yl)methylene)-2-((2-chlorophenyl)amino)-4-oxo-4,5-dihydrofuran-3-carboxylate]
DNA double strand breaks (phospho-H2AX, γ-H2AX) (phospho-H2AX (γ-H2AX)): DNA strand breakages were observed | pIC50 (HEL299): 5.92
